Test results: PubChem BioAssay AID330 (DTP/NCI, 2004)
Where “and” joins values, the source holds several entries; their conditions need not be identical. Equal entries are not always repeated. Inconclusive results and toxic doses are left out.

Tested on: P388 leukemia ip, CD2F1 mice, survival T/C
Experiment: NCI In Vivo Anticancer Drug Screen. Data for tumor model P388 Leukemia (intraperitoneal) in CD2F1 (CDF1) mice
Details: endpoint: median survival time, higher = longer survival
Summary of the method: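 Mice carrying the transplanted tumor received test compound or vehicle. Survival was recorded in each group, and the value is the treated-group measurement divided by that of the vehicle-treated control group.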

[1] = dose: 6.25 mg/kg/injection, schedule: Q01DX009 (ip), vehicle: saline with Tween-80
[2] = dose: 12.5 mg/kg/injection, schedule: Q01DX009 (ip), vehicle: saline with Tween-80
[3] = dose: 25.0 mg/kg/injection, schedule: Q01DX009 (ip), vehicle: saline with Tween-80
[4] = dose: 50.0 mg/kg/injection, schedule: Q01DX009 (ip), vehicle: saline with Tween-80
[5] = dose: 100.0 mg/kg/injection, schedule: Q01DX009 (ip), vehicle: saline with Tween-80
[6] = dose: 50.0 mg/kg/injection, schedule: Q01DX009 (ip), vehicle: saline
[7] = dose: 100.0 mg/kg/injection, schedule: Q01DX009 (ip), vehicle: saline
[8] = dose: 60.0 mg/kg/injection, schedule: Q01DX005 (ip), vehicle: saline with Tween-80
[9] = dose: 120.0 mg/kg/injection, schedule: Q01DX005 (ip), vehicle: saline with Tween-80
[10] = dose: 240.0 mg/kg/injection, schedule: Q01DX005 (ip), vehicle: saline with Tween-80
[11] = dose: 100.0 mg/kg/injection, schedule: Q04DX003 (ip), vehicle: saline with Tween-80
[12] = dose: 200.0 mg/kg/injection, schedule: Q04DX003 (ip), vehicle: saline with Tween-80
[13] = dose: 400.0 mg/kg/injection, schedule: Q04DX003 (ip), vehicle: saline with Tween-80
[14] = dose: 200.0 mg/kg/injection, schedule: Q01DX009 (ip), vehicle: saline with Tween-80

COC1C(O)C(C)OC(OC2C(Oc3cccc4c(O)c5c(=O)oc6ccc(C)c7c(=O)oc(c34)c5c67)OC(C)C(O)C2O)C1O (stereo unspecified)
T/C (dose: 0.5 mg/kg/injection, schedule: Q01DX009 (ip), vehicle: saline with Tween-80): 108 % of control
T/C (dose: 4.0 mg/kg/injection, schedule: Q01DX009 (ip), vehicle: saline with Tween-80): 157 % of control
T/C [1]: 152 % of control
T/C (dose: 12.5 mg/kg/injection, schedule: Q01DX001 (sc), vehicle: Klucel (hydroxypropylcellulose) (HPC)): 100 % of control
T/C (dose: 12.5 mg/kg/injection, schedule: Q01DX001 (sc), vehicle: other): 97 % of control
T/C (dose: 12.5 mg/kg/injection, schedule: Q01DX005 (sc), vehicle: Klucel (hydroxypropylcellulose) (HPC)): 98 % of control
T/C (dose: 12.5 mg/kg/injection, schedule: Q01DX005 (sc), vehicle: other): 101 % of control
T/C [2]: 164 % of control
T/C (dose: 25.0 mg/kg/injection, schedule: Q01DX001 (sc), vehicle: Klucel (hydroxypropylcellulose) (HPC)): 102 % of control
T/C (dose: 25.0 mg/kg/injection, schedule: Q01DX001 (sc), vehicle: other): 100 % of control
T/C (dose: 25.0 mg/kg/injection, schedule: Q01DX005 (sc), vehicle: Klucel (hydroxypropylcellulose) (HPC)): 97 % of control
T/C (dose: 25.0 mg/kg/injection, schedule: Q01DX005 (sc), vehicle: other): 92 % of control
T/C [3]: 174 % of control
T/C (dose: 50.0 mg/kg/injection, schedule: Q01DX001 (sc), vehicle: Klucel (hydroxypropylcellulose) (HPC)): 98 % of control
T/C (dose: 50.0 mg/kg/injection, schedule: Q01DX001 (sc), vehicle: other): 109 % of control
T/C (dose: 50.0 mg/kg/injection, schedule: Q01DX005 (sc), vehicle: Klucel (hydroxypropylcellulose) (HPC)): 100 % of control
T/C (dose: 50.0 mg/kg/injection, schedule: Q01DX005 (sc), vehicle: other): 98 % of control
T/C [4]: 183 % of control
T/C [5]: 171 % of control

COC(=N)CCSSCCC(=N)OC
T/C (dose: 25.0 mg/kg/injection, schedule: Q01DX009 (ip), vehicle: saline): 102 % of control
T/C [6]: 105 % of control
T/C [7]: 106 % of control
T/C (dose: 100.0 mg/kg/injection, schedule: Q01DX009 (ip), vehicle: suspension in saline): 101 % of control

O=C1C=C(SCCCC(=O)N2CCOCC2)C(=O)c2ccccc21
T/C (dose: 6.25 mg/kg/injection, schedule: Q04DX003 (ip), vehicle: Klucel (hydroxypropylcellulose) (HPC)): 107 % of control
T/C (dose: 12.5 mg/kg/injection, schedule: Q04DX003 (ip), vehicle: Klucel (hydroxypropylcellulose) (HPC)): 104 % of control

O=c1[nH]cnc2nn(C3OC(CO)C(O)C3O)cc12 (stereo unspecified)
T/C (dose: 0.39 mg/kg/injection, schedule: Q01DX009 (ip), vehicle: saline with Tween-80): 104 % of control and 117 % of control
T/C (dose: 0.78 mg/kg/injection, schedule: Q01DX009 (ip), vehicle: saline with Tween-80): 104 % of control and 116 % of control
T/C (dose: 1.56 mg/kg/injection, schedule: Q01DX009 (ip), vehicle: saline with Tween-80): 107 % of control
T/C (dose: 3.12 mg/kg/injection, schedule: Q01DX009 (ip), vehicle: saline with Tween-80): 93 % of control
T/C [1]: 93 % of control
T/C [2]: 101 % of control
T/C [3]: 96 % of control
T/C [4]: 104 % of control

CS(=O)(=O)CC(=N\O)/C(CS(C)(=O)=O)=N/O
T/C (dose: 60.0 mg/kg/injection, schedule: Q01DX005 (ip), vehicle: saline): 103 % of control
T/C (dose: 120.0 mg/kg/injection, schedule: Q01DX005 (ip), vehicle: saline): 94 % of control
T/C (dose: 240.0 mg/kg/injection, schedule: Q01DX005 (ip), vehicle: saline): 103 % of control

CCOC(=O)C1=C(C(=O)c2ccc(OC)cc2)C(c2c(Cl)cccc2Cl)C(C(=O)c2ccc(OC)cc2)=C(C(=O)OCC)N1
T/C (dose: 30.0 mg/kg/injection, schedule: Q01DX005 (ip), vehicle: saline with Tween-80): 86 % of control
T/C [8]: 102 % of control and 93 % of control
T/C [9]: 94 % of control
T/C [10]: 93 % of control

CC(=N\N)/C(C)=N/N
T/C [3]: 100 % of control
T/C [4]: 121 % of control

CCOC(=O)C(C=O)(NC(=O)c1ccccc1)OCC (stereo unspecified)
T/C [11]: 95 % of control
T/C [12]: 90 % of control
T/C [13]: 95 % of control

CN1c2ccc(Br)c[c]2[Sn]2([c]3cc(Br)ccc31)[c]1cc(Br)ccc1N(C)c1ccc(Br)c[c]12
T/C [8]: 95 % of control
T/C [9]: 98 % of control
T/C [10]: 92 % of control

CC(=O)Nn1cnc2ccccc2c1=O
T/C (dose: 25.0 mg/kg/injection, schedule: Q04DX003 (ip), vehicle: saline with Tween-80): 97 % of control
T/C (dose: 50.0 mg/kg/injection, schedule: Q04DX003 (ip), vehicle: saline with Tween-80): 90 % of control
T/C [11]: 93 % of control
T/C [12]: 101 % of control

COC(=O)C(O)c1cccc(OC)c1 (stereo unspecified)
T/C [11]: 113 % of control
T/C [12]: 100 % of control
T/C [13]: 109 % of control

C/C(=N\NC(=O)c1ccccc1O)c1cccc(/C(C)=N/NC(=O)c2ccccc2O)n1
T/C (dose: 3.12 mg/kg/injection, schedule: Q01DX009 (ip), vehicle: saline): 110 % of control
T/C (dose: 6.25 mg/kg/injection, schedule: Q01DX009 (ip), vehicle: saline): 114 % of control

CCC1OC(=O)C1[Si](C)(C)C (stereo unspecified)
T/C (dose: 100.0 mg/kg/injection, schedule: Q01DX001 (ip), vehicle: saline): 99 % of control
T/C (dose: 200.0 mg/kg/injection, schedule: Q01DX001 (ip), vehicle: saline): 103 % of control
T/C (dose: 400.0 mg/kg/injection, schedule: Q01DX001 (ip), vehicle: saline): 103 % of control

CC(C)C(NC(=O)CCl)C(=O)O (stereo unspecified)
T/C (dose: 100.0 mg/kg/injection, schedule: Q01DX009 (ip), vehicle: Klucel (hydroxypropylcellulose) (HPC)): 98 % of control
T/C (dose: 200.0 mg/kg/injection, schedule: Q01DX009 (ip), vehicle: Klucel (hydroxypropylcellulose) (HPC)): 109 % of control

O=C(O)C1CCCN1 (stereo unspecified)
T/C [6]: 98 % of control
T/C [7]: 100 % of control
T/C (dose: 200.0 mg/kg/injection, schedule: Q01DX009 (ip), vehicle: saline): 100 % of control

CCC1C2C(C(C)c3c[nH]c4ccccc34)NC(=O)C23C(=O)/C=C\C(=O)C(O)/C(C)=C/C(C)C/C=C/C3C2OC12C (stereo unspecified)
T/C (dose: 0.38 mg/kg/injection, schedule: Q01DX005 (ip), vehicle: Klucel (hydroxypropylcellulose) (HPC)): 105 % of control and 108 % of control
T/C (dose: 0.75 mg/kg/injection, schedule: Q01DX005 (ip), vehicle: Klucel (hydroxypropylcellulose) (HPC)): 110 % of control and 118 % of control
T/C (dose: 1.5 mg/kg/injection, schedule: Q01DX005 (ip), vehicle: Klucel (hydroxypropylcellulose) (HPC)): 106 % of control and 122 % of control

O=C(Nc1ccc(F)cc1)Nc1nccs1
T/C (dose: 17.5 mg/kg/injection, schedule: Q01DX009 (ip), vehicle: Klucel (hydroxypropylcellulose) (HPC)): 108 % of control
T/C (dose: 35.0 mg/kg/injection, schedule: Q01DX009 (ip), vehicle: Klucel (hydroxypropylcellulose) (HPC)): 110 % of control
T/C [4]: 96 % of control
T/C (dose: 70.0 mg/kg/injection, schedule: Q01DX009 (ip), vehicle: Klucel (hydroxypropylcellulose) (HPC)): 108 % of control
T/C [5]: 95 % of control
T/C (dose: 140.0 mg/kg/injection, schedule: Q01DX009 (ip), vehicle: Klucel (hydroxypropylcellulose) (HPC)): 115 % of control
T/C [14]: 104 % of control

CC(=O)/C(=C/c1ccc(OC2OC(CO)C(O)C(O)C2O)cc1)C(=O)CCN(C)C (stereo unspecified)
T/C (dose: 50.0 mg/kg/injection, schedule: Q01DX005 (ip), vehicle: saline): 107 % of control
T/C (dose: 100.0 mg/kg/injection, schedule: Q01DX005 (ip), vehicle: saline): 93 % of control
T/C (dose: 200.0 mg/kg/injection, schedule: Q01DX005 (ip), vehicle: saline): 100 % of control

CCN(CC)C1=C(c2ccccc2)C(=O)C1(C#N)C(C)(C)C (stereo unspecified)
T/C (dose: 50.0 mg/kg/injection, schedule: Q01DX005 (ip), vehicle: Klucel (hydroxypropylcellulose) (HPC)): 98 % of control
T/C (dose: 100.0 mg/kg/injection, schedule: Q01DX005 (ip), vehicle: Klucel (hydroxypropylcellulose) (HPC)): 93 % of control
T/C (dose: 200.0 mg/kg/injection, schedule: Q01DX005 (ip), vehicle: Klucel (hydroxypropylcellulose) (HPC)): 93 % of control

c1ccc(-c2cc3cc4ccccc4cn3c2)cc1
T/C [4]: 105 % of control
T/C [5]: 108 % of control and 112 % of control and 92 % of control
T/C [14]: 117 % of control and 96 % of control
T/C (dose: 400.0 mg/kg/injection, schedule: Q01DX009 (ip), vehicle: saline with Tween-80): 108 % of control and 120 % of control
T/C (dose: 600.0 mg/kg/injection, schedule: Q01DX009 (ip), vehicle: saline with Tween-80): 117 % of control
